The subject of assay [1] is V. anguillarum. Nature of the assay: Protection of coho salmon, peptide delivered constantly by intraperitoneal mini-osmotic pump. The assay is classed as in vivo, juvenile coho salmon. As to conditions: CEME by intraperitoneal mini-osmotic pump; control group 50%. As to the method:
Constant delivery of peptide P-CN using intraperitoneal mini-osmotic pumps was carried out. Briefly, juvenile coho salmon were divided into three treatment groups: A. Bacterial injection alone (12 fish). B. Fish saline osmotic pump and bacterial injection (12 fish). C. A combination of P-CN osmotic pump and bacterial injection (19 fish). The fish were anaesthetized and implanted (peritoneal cavity) with mini-osmotic pumps having a pumping rate of 0.13 µl/hour. Heaters were placed in the tanks to keep the water temperature between 12 and 13° C. Pumps were filled with concentrated P-CN to deliver approximately […] peptide to fish over a 30-day period. Twelve days after pump implantation, the fish received intraperitoneal injections of V. anguillarum ([…]). Mortalities were first noticed on day 3 for the group injected with bacteria alone and on day 5 for the group which received saline osmotic pumps as well as bacterial injections. However, there was no significant difference in mortality between the bacterial injection alone group and the saline osmotic pump group (67% vs. 75%). Mortalities were delayed for the P-CN osmotic pump group. The P-CN osmotic pump group had only one fish die on day 6 over the 30 days experiments with an accumulated mortality of 5%. […] Furthermore, since cationic peptides are not effective in a single treatment and constant administration is necessary, this argues for the potential success of transgenic fish expressing peptide P-CN.
(§1) Fish loss from disease is a significant problem in aquaculture worldwide. However, expression of natural cationic peptide genes in fish could increase disease resistance because of continual cellular production of the antimicrobial peptides. In order to choose optimal peptides for transgenic fish, the antimicrobial activities of some cationic peptides were determined by testing minimum inhibitory concentrations (MICs) in vitro. […] The in vivo effect of CEME was examined by intraperitoneal injection of the peptide along with V. anguillarum into juvenile coho salmon. Fish in the bacteria alone control group had 60% mortality, while fish receiving peptide and bacteria injections had 82% mortality. […] Therefore, constant delivery of CEME and Pleurocidin-CN using intraperitoneal mini-osmotic pumps were carried out. Twelve days after pump implantation, the fish received intraperitoneal injections of V. anguillarum. The CEME and pleurocidin-CN pump group had longer survival time and lower mortalities than the control groups (50% Vs. 13%, and 75% Vs. 5%, respectively). Indolicidin transgenic cutthroat trout were made using a construct including an MT promoter, growth hormone signal, pre-region, indolicidin, and terminator. […]

The subject of assay [2] is V. anguillarum. Nature of the assay: Single intraperitoneal injection of peptide along with V. anguillarum into juvenile coho salmon. It counts as in vivo. As to conditions: single injection of peptide along with bacteria; bacteria alone control 60%. As to the method:
as §1, with “terminator. Transgenic individuals were identified by serum analysis using PCR with construct-specific oligonucleotide primers.” for “terminator.”

SMILES strings stand for the structures.

Turning to `CC[C@H](C)[C@H](NC(=O)CNC(=O)[C@@H](NC(=O)[C@H](CCCCN)NC(=O)[C@H](CCCCN)NC(=O)[C@H](Cc1ccccc1)NC(=O)[C@H](CC(C)C)NC(=O)[C@H](CCCCN)NC(=O)[C@H](Cc1c[nH]c2ccccc12)NC(=O)[C@@H](N)CCCCN)[C@@H](C)CC)C(=O)NCC(=O)N[C@@H](C)C(=O)N[C@H](C(=O)N[C@@H](CC(C)C)C(=O)N[C@@H](CCCCN)C(=O)N[C@H](C(=O)N[C@@H](CC(C)C)C(=O)N[C@H](C(=O)N[C@H](C(=O)NCC(=O)N[C@@H](CC(C)C)C(=O)N1CCC[C@H]1C(=O)N[C@@H](C)C(=O)N[C@@H](CC(C)C)C(=O)N[C@H](C(=O)N[C@@H](CO)C(=O)O)[C@@H](C)CC)[C@@H](C)O)[C@@H](C)O)C(C)C)C(C)C` [CEME, reference compound], the “Mortality, pump group” value in assay [1] is on record as 13%. The Mortality in assay [2] is given as 82%.

The values above are taken from patent US6818407B2, “Anti-endotoxic antimicrobial cationic peptides and methods of use therfor” (priority 1998, dated 2004).
